Data set [1] can be described thus: Saturation of aqueous D-xylose solution. It is filed as physicochemical. The conditions noted are these: saturated at 50° C. The protocol: (§1) An experiment to investigate the effect of ultrasound on crystallisation has been performed, as follows. An aqueous solution of D-xylose containing 25 g D-xylose per 10 ml water was prepared, which would be saturated at 50° C. This was than cooled at a rate of 0.2 K/min to 20° C., and the resulting solid products were separated and isolated. […] If the transducers 14 were energized for a period of 2 minutes, starting at 46° C., then crystals appeared at 43° C. If the transducers 14 were energized continuously, starting at 50° C., then the resulting crystals were very small, and information on sizes was not obtained.

A short description of data set [2]: Effect of ultrasound on crystallisation of aqueous D-xylose solution cooled at 0.2 K/min. Format: physicochemical. The conditions noted are these: for temperature T at which solid first appeared: solution saturated at 50° C.
Description: Referring to the drawing, a batch crystallisation irradiator 10 includes a stainless-steel vessel 12 of internal diameter 0.31 m and of wall thickness 2 mm. To the outside of the wall are attached sixty transducer modules 14 closely packed in a square array. Each transducer module 14 comprises a 50 W piezoelectric transducer 16 which resonates at 20 kHz, attached to a conically flared titanium coupling block 18 by which it is connected to the wall, the wider end of each block being of diameter 63 mm. The transducer modules define five circumferential rings each of twelve modules 14, the centres of the coupling blocks 18 being on a square pitch of 82 mm. The irradiator 10 also incorporates three signal generators 20 (only one is shown) each of which drives the transducers 16 in a pair of adjacent longitudinal rows and another such pair of rows one third of the circumference apart from the first pair.
Consequently the solution will become saturated and then supersaturated. When the temperature is about 10° C. below that at which saturation occurs, the transducers are energized briefly, each generator 20 being energized for 0.8 s successively. Each transducer irradiates 50 W over a circle of diameter 63 mm, that is an intensity of 1.6 W/cm^2. The ultrasonic energy is dissipated over the cylindrical volume of the vessel 12, which is about 31 litres, so if all the transducers 16 were energised simultaneously the power density would be about 100 W/litre. To avoid focusing, only one signal generator 20 is energized at any one time, so the energy deposition is about 33 W/litre. After 0.8 s, a different generator 20 is energized, and so on. After 2.4 s each transducer has been energized, and application of ultrasound is terminated. The contents of the vessel 12 are then inspected, to see if any crystals have formed. If there are no crystals this activation procedure is repeated.
When they are activated, the signal generators 20 generate signals at a frequency that varies between 19.5 and 20.5 kHz, the signals from different signal generators 20 varying independently of each other. The frequency of each signal generator 20 varies sinusoidally with time between those frequency limits, at a frequency of 10 Hz.
as §1

For the compound `O=C[C@H](O)[C@@H](O)[C@H](O)CO` [D-xylose], the “concentration of saturated aqueous solution” value in data set [1] was determined as 25 g per 10 ml water. The figures for the “crystal size at 10% cumulative percentile (by mass)” value in data set [2] (2 min ultrasound) and in data set [2] (no ultrasound) were 43 microns and 27 microns, respectively. Also, the “crystal size at 50% cumulative percentile (by mass)” value in data set [2] (2 min ultrasound) worked out at 106 microns; in data set [2] (no ultrasound) it was 67 microns. Moreover, the “crystal size at 90% cumulative percentile (by mass)” value came to 211 microns in data set [2] (2 min ultrasound) and 149 microns in data set [2] (no ultrasound). Further, the “temperature T at which solid first appeared” value was 43 °C in data set [2] (2 min ultrasound starting at 46° C., cooled 0.2 K/min); 46 °C in data set [2] (continuous ultrasound starting at 50° C., cooled 0.2 K/min); 36 °C in data set [2] (no ultrasound (control), cooled 0.2 K/min to 20° C.). In addition, the metastable zone width entry was “about 14 K” in data set [2] (absence of ultrasound), “about 4 K” in data set [2] (continuous application of ultrasound) and “about 7 K” in data set [2] (short application of ultrasound).

The values above are taken from patent US7357835B2, “Production of crystalline materials by using high intensity ultrasound” (Accentus PLC, priority 2002, dated 2008).
